The results in this text go back to article PMC9307114, “Discovery and SAR analysis of phenylbenzo[d][1,3]dioxole-based proprotein convertase subtilisin/kexin type 9 inhibitors” (Journal of Enzyme Inhibition and Medicinal Chemistry, 2022).

Assay [1] deals with HepG2 cells. The assay can be described thus: MTT assay on HepG2 cells. Format: cell-based. The settings on record: Homo sapiens, mean of three experiments, read-out: HepG2 percentage inhibitory rate.
Assay [2] addresses PCSK9/LDLR PPI (Homo sapiens, UniProt Q8NBP7). The assay can be described thus: PCSK9-LDLR TR-FRET assay (PCSK9/LDLR PPI inhibitory screening). Format: binding. The settings on record: for inhibition at 10 µM: mean of three experiments, read-out: PCSK9 percentage inhibitory rate. As for the experimental part:
The PCSK9/LDLR time-resolved fluorescence resonance energy transfer (TR-FRET) assay was performed to evaluate the activity of synthesised compounds in inhibition of PCSK9-LDLR binding. The A series compounds were firstly synthesised for the PCSK9/LDLR PPI inhibitory test. […] Therefore, a group of A12 derivatives (B series) were synthesised with 4-chlorobenzyl substituted in the amino group and various substitutions introduced to the carboxylic group. […] To confirm whether the 4-chloromethyl group is essential for the PPI inhibitory activity, a new series of compounds (C series) were synthesised with the 4-chloromethyl group replaced by 4-methoxymethyl moiety. The inhibitory activity was observed, most likely resulting from the 4-methoxymethyl substitution (Table 3).
The compounds were dissolved in 100% DMSO; then 2 µL of the dilution was added to a 20 µL of reaction to keep […] in all of reactions. The binding reaction was conducted at room temperature. The reaction mixture in assay buffer contains PCSK9, the indicated amount of the inhibitor, ligand LDLR, and the reaction dyes. The reaction mixture was incubated for 120 min before detection of the TR-FRET signal. Fluorescence signals for both the donor and acceptor dyes were measured using a Tecan Infinite M1000 plate reader. TR-FRET was recorded as the ratio of the fluorescence of the acceptor and the donor dyes (acceptor/donor). The TR-FRET data were analysed using Graphpad Prism software.

PCSK9/LDLR PPI, sequence (Q8NBP7 153-692): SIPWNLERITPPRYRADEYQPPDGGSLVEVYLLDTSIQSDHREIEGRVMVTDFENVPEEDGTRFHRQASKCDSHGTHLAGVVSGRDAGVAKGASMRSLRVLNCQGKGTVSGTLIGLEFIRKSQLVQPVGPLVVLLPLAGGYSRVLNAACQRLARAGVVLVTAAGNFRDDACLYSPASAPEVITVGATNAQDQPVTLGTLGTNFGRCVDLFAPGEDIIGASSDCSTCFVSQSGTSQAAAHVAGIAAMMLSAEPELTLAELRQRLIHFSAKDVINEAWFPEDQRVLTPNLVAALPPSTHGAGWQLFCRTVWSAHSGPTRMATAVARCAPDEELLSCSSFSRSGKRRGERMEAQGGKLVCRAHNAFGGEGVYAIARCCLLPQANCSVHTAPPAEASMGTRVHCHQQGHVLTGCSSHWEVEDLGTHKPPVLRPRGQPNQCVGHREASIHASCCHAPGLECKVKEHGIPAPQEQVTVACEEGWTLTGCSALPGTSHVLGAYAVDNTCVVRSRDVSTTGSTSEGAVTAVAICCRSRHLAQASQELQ
PCSK9/LDLR PPI, sequence (Q8NBP7 31-152 partner limits assumed): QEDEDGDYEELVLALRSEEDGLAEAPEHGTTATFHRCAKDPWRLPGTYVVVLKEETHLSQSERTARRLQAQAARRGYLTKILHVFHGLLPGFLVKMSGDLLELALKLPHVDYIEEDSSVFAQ

On to `COc1cc(NC(=O)c2ccc(-c3cc4c(cc3NC(=O)c3ccc(F)cc3)OCO4)cc2)cc(OC)c1OC` [A1, 4-Fluoro-N-(6-(4-((3,4,5-trimethoxyphenyl)carbamoyl)phenyl)benzo[d][1,3]dioxol-5-yl)benzamide], for which the results for the inhibition at 10 µM in assay [1] and in assay [2] were 12.5 ± 1.06% and 27.2 ± 1.85%, respectively. In the same order, the values of `COc1cc(NC(=O)c2ccc(-c3cc4c(cc3NC(=O)c3ccc(C(F)(F)F)cc3)OCO4)cc2)cc(OC)c1OC` [A2, 4-(Trifluoromethyl)-N-(6-(4-((3,4,5-trimethoxyphenyl)carbamoyl)phenyl)benzo[d][1,3]dioxol-5-yl)benzamide] are 16.4 ± 1.55% and 23.1 ± 2.17%. In the same order, the values of `COc1cc(NC(=O)c2ccc(-c3cc4c(cc3NC(=O)c3ccccc3)OCO4)cc2)cc(OC)c1OC` [A3, 4-(6-Benzamidobenzo[d][1,3]dioxol-5-yl)-N-(3,4,5-trimethoxyphenyl)benzamide] are 8.78 ± 0.37% and 5.06 ± 0.09%. Consider `COc1cc(NC(=O)c2ccc(-c3cc4c(cc3NC(=O)c3ccccc3C(F)(F)F)OCO4)cc2)cc(OC)c1OC` [A4, 2-(Trifluoromethyl)-N-(6-(4-((3,4,5-trimethoxyphenyl)carbamoyl)phenyl)benzo[d][1,3]dioxol-5-yl)benzamide], for which the inhibition at 10 µM in assay [1] worked out at 7.93 ± 1.04%; in assay [2] it was 5.28 ± 0.4%. In the case of `COc1cc(NC(=O)c2ccc(-c3cc4c(cc3NC(=O)c3ccccc3F)OCO4)cc2)cc(OC)c1OC` [A5, 2-Fluoro-N-(6-(4-((3,4,5-trimethoxyphenyl)carbamoyl)phenyl)benzo[d][1,3]dioxol-5-yl)benzamide], the inhibition at 10 µM was found to be 5.96 ± 0.66% in assay [1] and 4.77 ± 0.31% in assay [2].

Turning to `COc1ccc(C(=O)Nc2cc3c(cc2-c2ccc(C(=O)Nc4cc(OC)c(OC)c(OC)c4)cc2)OCO3)cc1` [A6, 4-Methoxy-N-(6-(4-((3,4,5-trimethoxyphenyl)carbamoyl)phenyl)benzo[d][1,3]dioxol-5-yl)benzamide], the figures for the inhibition at 10 µM in assay [1] and in assay [2] were 5.9 ± 0.42% and 5.92 ± 0.52%, respectively. Regarding `COc1cc(NC(=O)c2ccc(-c3cc4c(cc3NC(=O)c3ccccc3Cl)OCO4)cc2)cc(OC)c1OC` [A7, 2-Chloro-N-(6-(4-((3,4,5-trimethoxyphenyl)carbamoyl)phenyl)benzo[d][1,3]dioxol-5-yl)benzamide], the inhibition at 10 µM in assay [1] came to 12.4 ± 1.07%; in assay [2], 5.16 ± 0.31%. In the same order, the values of `COc1cc(NC(=O)c2ccc(-c3cc4c(cc3NC(=O)c3cccc(Br)c3)OCO4)cc2)cc(OC)c1OC` [A8, 3-Bromo-N-(6-(4-((3,4,5-trimethoxyphenyl)carbamoyl)phenyl)benzo[d][1,3]dioxol-5-yl)benzamide] are 3.66 ± 0.24% and 5.88 ± 0.12%. In the same order, the values of `COc1cc(NC(=O)c2ccc(-c3cc4c(cc3NC(=O)c3cccc(F)c3)OCO4)cc2)cc(OC)c1OC` [A9, 3-Fluoro-N-(6-(4-((3,4,5-trimethoxyphenyl)carbamoyl)phenyl)benzo[d][1,3]dioxol-5-yl)benzamide] are 11.7 ± 0.88% and 22.5 ± 1.36%. In the same order, the values of `COc1ccccc1C(=O)Nc1cc2c(cc1-c1ccc(C(=O)Nc3cc(OC)c(OC)c(OC)c3)cc1)OCO2` [A10, 2-Methoxy-N-(6-(4-((3,4,5-trimethoxyphenyl)carbamoyl)phenyl)benzo[d][1,3]dioxol-5-yl)benzamide] are 4.27 ± 0.16% and 3.05 ± 0.05%. Turning to `COc1cc(NC(=O)c2ccc(-c3cc4c(cc3NC(=O)c3cccc(C(F)(F)F)c3)OCO4)cc2)cc(OC)c1OC` [A11, 3-(Trifluoromethyl)-N-(6-(4-((3,4,5-trimethoxyphenyl)carbamoyl)phenyl)benzo[d][1,3]dioxol-5-yl)benzamide], the inhibition at 10 µM came out at 7.97 ± 0.08% in assay [1] and 35.2 ± 3.15% in assay [2]. In the same order, the values of `COc1cc(NC(=O)c2ccc(-c3cc4c(cc3NC(=O)c3ccccc3C)OCO4)cc2)cc(OC)c1OC` [A13, 2-Methyl-N-(6-(4-((3,4,5-trimethoxyphenyl)carbamoyl)phenyl)benzo[d][1,3]dioxol-5-yl)benzamide] are 5.89 ± 0.27% and 7.65 ± 0.01%. In the same order, the values of `CCc1ccc(C(=O)Nc2cc3c(cc2-c2ccc(C(=O)Nc4cc(OC)c(OC)c(OC)c4)cc2)OCO3)cc1` [A14, 4-Ethyl-N-(6-(4-((3,4,5-trimethoxyphenyl)carbamoyl)phenyl)benzo[d][1,3]dioxol-5-yl)benzamide] are 5.21 ± 0.16% and 7.83 ± 0.26%. In the same order, the values of `COc1cc(NC(=O)c2ccc(-c3cc4c(cc3NC(=O)c3cc(F)cc(F)c3)OCO4)cc2)cc(OC)c1OC` [A15, 3,5-Difluoro-N-(6-(4-((3,4,5-trimethoxyphenyl)carbamoyl)phenyl)benzo[d][1,3]dioxol-5-yl)benzamide] are 4.63 ± 0.22% and 4.76 ± 0.37%. Turning to `COc1cc(NC(=O)c2ccc(-c3cc4c(cc3NC(=O)c3cc(F)ccc3F)OCO4)cc2)cc(OC)c1OC` [A16, 2,5-Difluoro-N-(6-(4-((3,4,5-trimethoxyphenyl)carbamoyl)phenyl)benzo[d][1,3]dioxol-5-yl)benzamide], the results for the inhibition at 10 µM in assay [1] and in assay [2] were 3.33 ± 0.23% and 4.22 ± 0.25%, respectively. Regarding `COc1cc(NC(=O)c2ccc(-c3cc4c(cc3NC(=O)c3ccc(C#N)cc3)OCO4)cc2)cc(OC)c1OC` [A17, 4-Cyano-N-(6-(4-((3,4,5-trimethoxyphenyl)carbamoyl)phenyl)benzo[d][1,3]dioxol-5-yl)benzamide], the inhibition at 10 µM in assay [1] is 3.84 ± 0.11%; in assay [2] it was 7.91 ± 0.71%. In the same order, the values of `O=C(Nc1ccc(Br)cc1)c1ccc(-c2cc3c(cc2NC(=O)c2ccc(CCl)cc2)OCO3)cc1` [B2, N-(4-bromophenyl)-4-(6-(4-(chloromethyl)benzamido)benzo[d][1,3]dioxol-5-yl)benzamide] are 15.6 ± 1.24% and 25.5 ± 2.22%. In the same order, the values of `COc1ccc(NC(=O)c2ccc(-c3cc4c(cc3NC(=O)c3ccc(CCl)cc3)OCO4)cc2)cc1` [B5, 4-(Chloromethyl)-N-(6-(4-((4-methoxyphenyl)carbamoyl)phenyl)benzo[d][1,3]dioxol-5-yl)benzamide] are 7.22 ± 0.15% and 6.18 ± 0.08%. As to `CCOc1ccc(NC(=O)c2ccc(-c3cc4c(cc3NC(=O)c3ccc(CCl)cc3)OCO4)cc2)cc1` [B6, 4-(Chloromethyl)-N-(6-(4-((4-ethoxyphenyl)carbamoyl)phenyl)benzo[d][1,3]dioxol-5-yl)benzamide], the inhibition at 10 µM is 7.04 ± 0.27% in assay [1] and 6.97 ± 0.43% in assay [2].

Consider `COc1ccc(NC(=O)c2ccc(-c3cc4c(cc3NC(=O)c3ccc(CCl)cc3)OCO4)cc2)cc1OC` [B7, 4-(Chloromethyl)-N-(6-(4-((3,4-dimethoxyphenyl)carbamoyl)phenyl)benzo[d][1,3]dioxol-5-yl)benzamide], for which the inhibition at 10 µM worked out at 5.45 ± 0.39% in assay [1] and 16.3 ± 0.62% in assay [2]. In the case of `Cc1ccc(NC(=O)c2ccc(-c3cc4c(cc3NC(=O)c3ccc(CCl)cc3)OCO4)cc2)cc1` [B8, 4-(Chloromethyl)-N-(6-(4-(p-tolylcarbamoyl)phenyl)benzo[d][1,3]dioxol-5-yl)benzamide], the inhibition at 10 µM in assay [1] came to 3.35 ± 0.16%; in assay [2], 3.15 ± 0.02%. In the same order, the values of `CCc1ccc(NC(=O)c2ccc(-c3cc4c(cc3NC(=O)c3ccc(CCl)cc3)OCO4)cc2)cc1` [B9, 4-(Chloromethyl)-N-(6-(4-((4-ethylphenyl)carbamoyl)phenyl)benzo[d][1,3]dioxol-5-yl)benzamide] are 6.36 ± 0.42% and 3.36 ± 0.23%. In the same order, the values of `CCCCCc1ccc(NC(=O)c2ccc(-c3cc4c(cc3NC(=O)c3ccc(CCl)cc3)OCO4)cc2)cc1` [B10, 4-(Chloromethyl)-N-(6-(4-((4-pentylphenyl)carbamoyl)phenyl)benzo[d][1,3]dioxol-5-yl)benzamide] are 2.4 ± 0.19% and 5.87 ± 0.01%. In the same order, the values of `O=C(Nc1ccc(-c2ccccc2)cc1)c1ccc(-c2cc3c(cc2NC(=O)c2ccc(CCl)cc2)OCO3)cc1` [B11, N-([1,1′-biphenyl]-4-yl)-4-(6-(4-(chloromethyl)benzamido)benzo[d][1,3]dioxol-5-yl)benzamide] are 3.26 ± 0.22% and 6.92 ± 0.53%.

As for `O=C(Nc1ccc2c(c1)OCCO2)c1ccc(-c2cc3c(cc2NC(=O)c2ccc(CCl)cc2)OCO3)cc1` [B12, 4-(Chloromethyl)-N-(6-(4-((2,3-dihydrobenzo[b][1,4]dioxin-6-yl)carbamoyl)phenyl)benzo[d][1,3]dioxol-5-yl)benzamide], the inhibition at 10 µM in assay [1] came out at 5.76 ± 0.24%; in assay [2], 5.16 ± 0.2%. In the same order, the values of `O=C(Nc1cc2c(cc1-c1ccc(C(=O)N3CCN(c4ccccc4)CC3)cc1)OCO2)c1ccc(CCl)cc1` [B13, 4-(Chloromethyl)-N-(6-(4-(4-phenylpiperazine-1-carbonyl)phenyl)benzo[d][1,3]dioxol-5-yl)benzamide] are 3.21 ± 0.26% and 5.64 ± 0.04%.

As to `O=C(Nc1cccc(-c2nc3ccccc3o2)c1)c1ccc(NC(=O)c2cc3ccccc3o2)cc1` [SBC-115337, reference compound], the IC50 in assay [2] (dose-dependent IC50 plot, Figure 3, read-out: PCSK9 IC50 (inhibition of PCSK9/LDLR PPI)) was 12.9 µM.
